Among the data in patent US20100209519A1, “PHARMACEUTICAL COMPOSITION FOR INHALATION DELIVERY AND FABRICATION METHOD THEREOF” (NATIONAL TAIWAN UNIVERSITY, priority 2009, published 2010) are IC50 values, retold here.

Where two headings read alike, the source gives them in different places.

In the experiment the test system is A549 cells. Briefly: CDDP in vitro anticancer activity assay (MTT). The format is cell-based, human. Here is the method: A549 cells were placed in a 96-well culture plat at a density of 5×10^4 cells per well in 0.1 ml of growth medium and cultured for 24 hours. […] The percentage of cell viability is illustrated as the ratio of the absorbance of treated cells relative to the absorbance of non-treated cells.

As a reminder, the IC50 is the concentration that gives 50% inhibition. On to `[NH2][Pt]([NH2])([Cl])[Cl]` [CDDP, Cisplatin], for which the IC50 came to 13.6 µM (48 hours, read-out: IC50 Value, 48 hours) and 5.2 µM (72 hours, read-out: IC50 Value, 72 hours).
